#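 Cells were grown in 96-well plates and exposed to each compound for 48 hours at five concentrations; endpoints were interpolated linearly between bracketing concentrations, or set to the highest concentration if not reached. GI50 is the concentration that inhibits growth by half. Definition used: TGI = concentration required for complete inhibition of growth.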
# Key:
# Experiment in all cases: NCI tumour cell line growth inhibition, 48 h
# COLO 205 colon = test system: COLO 205 colon
# HOP-18 NSCLC = test system: HOP-18 NSCLC
# EKVX NSCLC = test system: EKVX NSCLC
# OVCAR-3 ovarian = test system: OVCAR-3 ovarian
# IGROV1 ovarian = test system: IGROV1 ovarian
# UO-31 renal = test system: UO-31 renal
# HT29 colon = test system: HT29 colon
# KM12 colon = test system: KM12 colon
# HS 578T breast = test system: HS 578T breast
Structure (SMILES),TGI (COLO 205 colon) [µM],TGI (HOP-18 NSCLC) [µM],TGI (EKVX NSCLC) [µM],TGI (OVCAR-3 ovarian) [µM],TGI (IGROV1 ovarian) [µM],TGI (UO-31 renal) [µM],TGI (HT29 colon) [µM],TGI (KM12 colon) [µM],TGI (HS 578T breast) [µM],GI50 (COLO 205 colon) [µM],GI50 (EKVX NSCLC) [µM],GI50 (OVCAR-3 ovarian) [µM],GI50 (IGROV1 ovarian) [µM],GI50 (UO-31 renal) [µM],GI50 (HT29 colon) [µM],GI50 (KM12 colon) [µM],GI50 (HS 578T breast) [µM]
CCN(CC)C(=O)Cc1[nH][nH]c(=O)c1C(=O)N(CC)CC,> 100,> 100,> 100,> 100,> 100,> 100,> 100,> 100,–,–,–,–,–,–,–,–,–
N#Cc1c(N)oc2cc3c(C#N)c(N)oc3cc12,> 100,> 100,> 100,> 100,> 100,> 100,> 100,> 100,–,–,–,–,–,–,–,–,–
CC(C)(c1ccc(C=O)o1)c1ccc(C(C)(C)c2ccc(C=O)o2)o1,> 100,> 100,> 100,–,> 100,–,> 100,> 100,–,–,–,–,–,–,–,–,–
CCOC(=O)C1=C(C)N(NC(=O)Nc2ccccc2)C2(N)N(NC(=O)Nc3ccccc3)C(C)=C(C(=O)OCC)C12C#N (stereo unspecified),32.6,34.3,–,32.2,36.6,> 100,38.1,–,–,–,–,–,–,–,–,–,–
CC(=O)O[C@H]1CSC[C@@H](OC(C)=O)C1[N+](=O)[O-] (stereo partly specified),49.1,> 100,> 100,55.3,> 100,–,> 100,> 100,–,–,–,–,–,–,–,–,–
C(=C\c1ccc2ccccc2c1Nc1ccccc1)/c1ccccc1,> 100,> 88.1,> 100,60.4,> 100,> 72.2,> 100,> 100,–,–,–,–,–,–,–,–,–
NC1(C(=O)O)CCC(C(=O)O)CC1 (stereo unspecified),> 100,> 100,> 100,> 100,> 100,> 100,> 100,> 100,–,–,–,–,–,–,–,–,–
Nc1ncc(CN2CCCC2)c(-c2ccccc2O)n1,> 750,> 750,–,> 750,> 750,> 750,> 750,> 750,–,–,–,–,–,–,–,–,–
O=C1OCc2nc3c(c(-c4ccccc4C(F)(F)F)c21)C(=O)OC3,> 100,> 100,> 100,> 100,> 100,> 100,–,> 100,–,–,–,–,–,–,–,–,–
C=C1C(=O)C23C(O)CC4C(C)(C)CCC(O)C4(C)C2CC(OC(C)=O)C1[C@H]3O (stereo partly specified),5.3,3.82,16.8,19,–,29.7,–,31.1,53.7,–,–,–,–,–,–,–,–
CCc1ccc([OH2+])c(C(=O)[O-])c1.CCc1ccc([OH2+])c(C(=O)[O-])c1.CCc1ccc([OH2+])c(C(=O)[O-])c1.CCc1ccc([OH2+])c(C(=O)[O-])c1.[Cu+2].[Cu+2],> 100,–,> 100,> 100,> 100,> 100,> 100,> 100,> 100,> 100,> 100,36.5,> 69.6,> 100,44.7,53.6,> 100
NN=C1/C(=C\c2ccccc2)CCC/C1=C/c1ccccc1,71.4,> 100,89.1,> 100,> 100,94.2,–,> 100,–,–,–,–,–,–,–,–,–
COc1ccc(/C=C\c2cc(OC)c(OC)c(OC)c2)cc1NC(=O)/C=C/c1cc(OC)c(OC)c(OC)c1,18.5,–,> 100,> 100,> 100,> 100,> 100,> 100,> 100,4.41,> 100,5.62,9.47,2.64,3.55,4.67,5.94

# From PubChem BioAssay (NCI)
